Assays:
[1] = system: Staphylococcus aureus 209P; assay: MIC by serial two-fold agar dilution, S. aureus 209P; format: cell-based; conditions: Table 7; Mueller-Hinton agar
Procedure: (§1) The minimum inhibitory concentrations (MIC) of Bu-2659A, B, C, D and E were determined for a variety of gram-positive and gram-negative bacteria by the serial two-fold agar dilution method using the Steer's multi-inoculating apparatus. The inoculum was standardized as a 10^4 dilution of an overnight culture of the test organisms in Heart Infusion Broth (Difco). […] Reference antibiotics utilized in these tests included commercially available neomycin as well as its components, neomycins B and C [as used herein, the term "neomycin" means the commercial product containing neomycins B and C at an approximate ratio of 7:3], paromomycin [the commercial product containing >90% of paromomycin I and <10% of paromomycin II] and ribostamycin.

[2] = system: Staphylococcus aureus Smith; assay: MIC by serial two-fold agar dilution, S. aureus Smith; format: cell-based; conditions: Table 7; Mueller-Hinton agar
Procedure: as §1

[3] = system: Staphylococcus aureus D136; assay: MIC by serial two-fold agar dilution, S. aureus D136; format: cell-based; conditions: Table 7; Mueller-Hinton agar
Procedure: as §1

[4] = system: Micrococcus luteus PCI 1001; assay: MIC by serial two-fold agar dilution, M. luteus PCI 1001; format: cell-based; conditions: Table 7; Mueller-Hinton agar
Procedure: as §1

Micrococcus flavus D12 = assay: MIC by serial two-fold agar dilution, M. flavus D12; format: cell-based; conditions: Table 7; Mueller-Hinton agar
Procedure: as §1

[5] = system: Bacillus subtilis PCI 219; assay: MIC by serial two-fold agar dilution, B. subtilis PCI 219; format: cell-based; conditions: Table 7; Mueller-Hinton agar
Procedure: as §1

Escherichia coli NIHJ = assay: MIC by serial two-fold agar dilution, E. coli NIHJ; format: cell-based; conditions: Table 7; Mueller-Hinton agar
Procedure: as §1

Escherichia coli Juhl [6] = assay: MIC by serial two-fold agar dilution, E. coli Juhl; format: cell-based; conditions: Table 7; Mueller-Hinton agar
Procedure: as §1

[7] = system: Klebsiella pneumoniae D11; assay: MIC by serial two-fold agar dilution, K. pneumoniae D11; format: cell-based; conditions: Table 7; Mueller-Hinton agar
Procedure: as §1

Proteus vulgaris A9436 = assay: MIC by serial two-fold agar dilution, P. vulgaris A9436; format: cell-based; conditions: Table 7; Mueller-Hinton agar
Procedure: as §1

Proteus mirabilis A9554 = assay: MIC by serial two-fold agar dilution, P. mirabilis A9554; format: cell-based; conditions: Table 7; Mueller-Hinton agar
Procedure: as §1

Proteus mirabilis A9906 [8] = assay: MIC by serial two-fold agar dilution, P. mirabilis A9906; format: cell-based; conditions: Table 7; Mueller-Hinton agar
Procedure: as §1

Proteus morganii A9553 = assay: MIC by serial two-fold agar dilution, P. morganii A9553; format: cell-based; conditions: Table 7; Mueller-Hinton agar
Procedure: as §1

Proteus rettgeri A15167 = assay: MIC by serial two-fold agar dilution, P. rettgeri A15167; format: cell-based; conditions: Table 7; Mueller-Hinton agar
Procedure: as §1

[9] = system: Pseudomonas aeruginosa D15; assay: MIC by serial two-fold agar dilution, P. aeruginosa D15; format: cell-based; conditions: Table 7; Mueller-Hinton agar
Procedure: as §1

[10] = system: Pseudomonas aeruginosa A9930; assay: MIC by serial two-fold agar dilution, P. aeruginosa A9930; format: cell-based; conditions: Table 7; Mueller-Hinton agar
Procedure: as §1

[11] = system: Serratia marcescens A20019; assay: MIC by serial two-fold agar dilution, S. marcescens A20019; format: cell-based; conditions: Table 7; Mueller-Hinton agar
Procedure: as §1

[12] = system: Streptococcus pyogenes A20201; assay: MIC by serial two-fold agar dilution, S. pyogenes A20201; format: cell-based; conditions: Table 8; GC medium
Procedure: as §1

[13] = system: Streptococcus pneumoniae Type I; assay: MIC by serial two-fold agar dilution, S. pneumoniae Type I; format: cell-based; conditions: Table 8; GC medium
Procedure: as §1

[14] = system: Neisseria gonorrhoeae A20143; assay: MIC by serial two-fold agar dilution, N. gonorrhoeae A20143; format: cell-based; conditions: Table 8; GC medium
Procedure: as §1

[15] = system: Neisseria meningitidis A21496; assay: MIC by serial two-fold agar dilution, N. meningitidis A21496; format: cell-based; conditions: Table 8; GC medium
Procedure: as §1

[16] = system: Haemophilus influenzae A9729; assay: MIC by serial two-fold agar dilution, H. influenzae A9729; format: cell-based; conditions: Table 8; GC medium
Procedure: as §1

[17] = system: Mycobacterium smegmatis 607; assay: MIC by serial two-fold agar dilution, M. smegmatis 607; format: cell-based; conditions: Table 8; No. 1001 medium
Procedure: as §1

Mycobacterium phlei = assay: MIC by serial two-fold agar dilution, M. phlei; format: cell-based; conditions: Table 8; No. 1001 medium
Procedure: as §1

Mycobacterium ranae = assay: MIC by serial two-fold agar dilution, M. ranae; format: cell-based; conditions: Table 8; No. 1001 medium
Procedure: as §1

[18] = system: Staphylococcus aureus A20239; assay: MIC, aminoglycoside-resistant S. aureus A20239; format: cell-based; conditions: Table 9; inactivating enzyme APH(3')-I,II; Mueller-Hinton agar
Procedure: as §1

[19] = system: Bacillus brevis IFO 12334; assay: MIC, aminoglycoside-resistant B. brevis IFO 12334; format: cell-based; conditions: Table 9; inactivating enzyme ANT (4'); Mueller-Hinton agar
Procedure: as §1

Escherichia coli ML 1630 = assay: MIC, aminoglycoside-resistant E. coli ML 1630; format: cell-based; conditions: Table 9; inactivating enzyme APH(3')-I; Mueller-Hinton agar
Procedure: as §1

Escherichia coli A20107 = assay: MIC, aminoglycoside-resistant E. coli A20107; format: cell-based; conditions: Table 9; inactivating enzyme APH(3')-II; Mueller-Hinton agar
Procedure: as §1

[20] = system: Escherichia coli JR66/W677; assay: MIC, aminoglycoside-resistant E. coli JR66/W677; format: cell-based; conditions: Table 9; inactivating enzymes APH(3')-II, ANT(2"); Mueller-Hinton agar
Procedure: as §1

Escherichia coli JR88 = assay: MIC, aminoglycoside-resistant E. coli JR88; format: cell-based; conditions: Table 9; inactivating enzyme AAC(3)-I; Mueller-Hinton agar
Procedure: as §1

[21] = system: Escherichia coli JR35/C600; assay: MIC, aminoglycoside-resistant E. coli JR35/C600; format: cell-based; conditions: Table 9; inactivating enzyme APH(3')-I; Mueller-Hinton agar
Procedure: as §1

Escherichia coli A20732 = assay: MIC, aminoglycoside-resistant E. coli A20732; format: cell-based; conditions: Table 9; inactivating enzyme ANT(2"); Mueller-Hinton agar
Procedure: as §1

[22] = system: Escherichia coli NR79/W677; assay: MIC, aminoglycoside-resistant E. coli NR79/W677; format: cell-based; conditions: Table 9; inactivating enzyme AAC(6')-I; Mueller-Hinton agar
Procedure: as §1

[23] = system: Enterobacter cloacae A20364; assay: MIC, aminoglycoside-resistant E. cloacae A20364; format: cell-based; conditions: Table 9; inactivating enzyme APH(3')-I; Mueller-Hinton agar
Procedure: as §1

[24] = system: Pseudomonas aeruginosa A20601; assay: MIC, aminoglycoside-resistant P. aeruginosa A20601; format: cell-based; conditions: Table 9; inactivating enzymes AAC(3)-I, APH(3')-II; Mueller-Hinton agar
Procedure: as §1

[25] = system: Pseudomonas aeruginosa A20896; assay: MIC, aminoglycoside-resistant P. aeruginosa A20896; format: cell-based; conditions: Table 9; inactivating enzyme AAC(3)-II; Mueller-Hinton agar
Procedure: as §1

[26] = system: species of Streptococcus and Mycobacterium; assay: Antibacterial activity (MIC), overall, Streptococcus and Mycobacterium, Table 8; format: cell-based
Procedure: as §1

Escherichia coli Juhl [27] = assay: Experimental systemic infection in mice, E. coli Juhl; format: in vivo; conditions: im, single treatment, 4 days
Procedure: (§2) The in vivo activity of Bu-2659A was assessed by experimental systemic infection in mice. The pathogenic bacteria used in the in vivo tests were E. coli Juhl, K. pneumoniae D-11, P. mirabilis A9906, S. aureus Smith and S. pyogenes A20201. Mice were challenged intraperitoneally with approximately 100×LD50 dose of the pathogens in a 5% suspension of hog gastric mucin (American Laboratories, Omaha, Neb.). A single intramuscular treatment with the antibiotic was given immediately after the bacterial challenge. […] Neomycin was comparatively tested as a reference compound. […] In terms of PD50 value Bu-2659A was about one-half as active as neomycin against infections with S. aureus and S. pyogenes.

[28] = system: Klebsiella pneumoniae D-11; assay: Experimental systemic infection in mice, K. pneumoniae D-11; format: in vivo; conditions: im, single treatment, 4 days
Procedure: as §2

Proteus mirabilis A9906 [29] = assay: Experimental systemic infection in mice, P. mirabilis A9906; format: in vivo; conditions: im, single treatment, 4 days
Procedure: as §2

[30] = system: Staphylococcus aureus Smith; assay: Experimental systemic infection in mice, S. aureus Smith; format: in vivo; conditions: im, single treatment, 4 days
Procedure: as §2

[31] = system: Streptococcus pyogenes A20201; assay: Experimental systemic infection in mice, S. pyogenes A20201; format: in vivo; conditions: im, single treatment, 4 days
Procedure: as §2

Acute toxicity in mice = format: in vivo; conditions: mice
Procedure: The acute toxicity of Bu-2659A was determined in mice by intravenous, intraperitoneal and subcutaneous routes. Neomycin also was tested for comparison purposes. […] The toxicity of Bu-2659A was approximately 1/3 that of neomycin in terms of LD50 values, thus presenting a potential clinical advantage for Bu-2659A.

Q: For neomycin, which MIC [1] is on record?
A: The MIC was 0.4 µg/mL.

Q: And the MIC [2]?
A: Its MIC is 0.8 µg/mL.

Q: And the MIC [3]?
A: Its MIC is 0.8 µg/mL.

Q: What about the MIC [4] of the same substance?
A: The MIC was 0.8 µg/mL.

Q: What about the MIC (Micrococcus flavus D12) of the same substance?
A: The MIC was 3.1 µg/mL.

Q: What about the MIC [5] of the same substance?
A: Its MIC is less than 0.05 µg/mL.

Q: What about the MIC (Escherichia coli NIHJ) of the same substance?
A: Its MIC is 1.6 µg/mL.

Q: And the MIC (Escherichia coli Juhl [6])?
A: Its MIC is 3.1 µg/mL.

Q: And the MIC [7]?
A: Its MIC is 0.4 µg/mL.

Q: And the MIC (Proteus vulgaris A9436)?
A: The MIC was 0.8 µg/mL.

Q: And the MIC (Proteus mirabilis A9554)?
A: Its MIC is 0.8 µg/mL.

Q: What about the MIC (Proteus mirabilis A9906 [8]) of the same substance?
A: The MIC was 0.8 µg/mL.

Q: What about the MIC (Proteus morganii A9553) of the same substance?
A: The MIC was 3.1 µg/mL.

Q: And the MIC (Proteus rettgeri A15167)?
A: The MIC was 1.6 µg/mL.

Q: And the MIC [9]?
A: Its MIC is 3.1 µg/mL.

Q: And the MIC [10]?
A: Its MIC is 3.1 µg/mL.

Q: What about the MIC [11] of the same substance?
A: Its MIC is 1.6 µg/mL.

Q: And the MIC [12]?
A: Its MIC is 12.5 µg/mL.

Q: What about the MIC [13] of the same substance?
A: Its MIC is 25 µg/mL.

Q: And the MIC [14]?
A: The MIC was greater than 400 µg/mL.

Q: And the MIC [15]?
A: Its MIC is 400 µg/mL.

Q: What about the MIC [16] of the same substance?
A: The MIC was 400 µg/mL.

Q: What about the MIC [17] of the same substance?
A: Its MIC is 0.4 µg/mL.

Q: And the MIC (Mycobacterium phlei)?
A: The MIC was 0.2 µg/mL.

Q: What about the MIC (Mycobacterium ranae) of the same substance?
A: The MIC was 0.4 µg/mL.

Q: And the MIC [18]?
A: The MIC was 25 µg/mL.

Q: And the MIC [19]?
A: Its MIC is 25 µg/mL.

Q: What about the MIC (Escherichia coli ML 1630) of the same substance?
A: The MIC was greater than 100 µg/mL.

Q: And the MIC (Escherichia coli A20107)?
A: Its MIC is 100 µg/mL.

Q: What about the MIC [20] of the same substance?
A: Its MIC is greater than 100 µg/mL.

Q: And the MIC (Escherichia coli JR88)?
A: The MIC was 1.6 µg/mL.

Q: What about the MIC [21] of the same substance?
A: The MIC was greater than 100 µg/mL.

Q: And the MIC (Escherichia coli A20732)?
A: Its MIC is 0.8 µg/mL.

Q: What about the MIC [22] of the same substance?
A: Its MIC is 50 µg/mL.

Q: What about the MIC [23] of the same substance?
A: Its MIC is greater than 100 µg/mL.

Q: What about the MIC [24] of the same substance?
A: Its MIC is 12.5 µg/mL.

Q: What about the MIC [25] of the same substance?
A: The MIC was greater than 100 µg/mL.

Q: What about the “activity against Streptococcus and Mycobacterium, in words” value [26] of the same substance?
A: Its value is “equivalent activity”.

Q: And the PD50 (Escherichia coli Juhl [27])?
A: Its PD50 is 3.1 mg/kg.

Q: What about the PD50 [28] of the same substance?
A: The PD50 was 0.9 mg/kg.

Q: What about the PD50 (Proteus mirabilis A9906 [29]) of the same substance?
A: The PD50 was 1.8 mg/kg.

Q: What about the PD50 [30] of the same substance?
A: Its PD50 is 0.31 mg/kg.

Q: And the PD50 [31]?
A: The PD50 was 50 mg/kg.

Q: What about the LD50 (Acute toxicity in mice; intraperitoneal) of the same substance?
A: The LD50 was 180 mg/kg.

Q: And the LD50 (Acute toxicity in mice; intravenous)?
A: Its LD50 is 34 mg/kg.

Q: What about the LD50 (Acute toxicity in mice; subcutaneous) of the same substance?
A: The LD50 was 280 mg/kg.

— patent publication US4504580A, “Antibiotics produced by fermentation of a novel strain of Streptomyces hygroscopicus” (Bristol-Myers Company, priority 1983, dated 1985)
